# Like-named read-outs stand apart in the source and are kept apart here.
# Key:
# [1] = tested on: Primary rat cortical neurons; assay: Staurosporine (STS) injury assay, cell viability by CELLTITER-BLUE; format: cell-based
# Description: Primary rat cortical neurons were cultured on poly-D-lysine coated 96-well plates at a density of 1×10^5/well in Neurobasal medium+B27 supplement. 1/2 media swaps were given every 3 d. ARA-c was added to the medium on day in vitro (DIV) 3 to inhibit glial proliferation. On DIV9, maintenance media (2/3) was collected from plates and mixed with fresh media (1/3) to obtain ˜67% conditioned medium (CM). Staurosporine (STS) and drugs were prepared in 100% DMSO and diluted in CM. Uninjured controls received an equal concentration of DMSO. Primary cortical neurons were incubated with +STS+drugs for in 100 μL/well CM. Cell viability was determined 24 h later (DIV10) by CELLTITER-BLUE® (n=10 replicates/group). […] Data were analyzed by 1-Way-ANOVA and Newman-Keuls Multiple Comparison Test. Graphs show Mean+SEM. Data are significant at p<0.05. Conclusion: NSC74429 is a potent a neuroprotectant as determined by the STS cell death assay.
# pAKT473 [2] = conditions: primary rat cortical neurons, Jackson et al., 2013; cited from earlier work
# [3] = tested on: Primary rat cortical neurons; assay: Glutamate-excitotoxicity assay, cell viability by CELLTITER-BLUE; format: cell-based; conditions: 10 μM glutamic acid 5 min, viability 24 h later
# Description: (§1) Primary rat cortical neurons were cultured on poly-D-lysine coated 96-well plates at a density of 1×10^5/well in Neurobasal medium+B27 supplement. 1/2 media swaps were given every 3 d. ARA-c was added to the maintenance medium on day in vitro (DIV) 3 to inhibit glial proliferation. (A) On DIV9, maintenance media (2/3) was collected from plates and mixed with fresh media (1/3) to obtain 67% conditioned medium (CM). Cells were washed once with balanced salt solution (BSS supplemented with 5 mM glucose; 200 μL/well). BSS was replaced with BSS containing 10 μM glutamic acid, and incubated on cells 5 min to induce excitotoxicity. Glutamic acid/BSS was replaced with 100 μL/well CM, containing DMSO (control) or drugs, and returned to the incubator for 24 h (n=10 replicates/group). (B) DIV9 cells were washed once with BSS, injured 35 min with 40 μM H2O2 dissolved in BSS, and replaced with 100 μL/well CM containing DMSO (control) or drugs. Cell viability was determined 24 h later (DIV10) by addition of 20 μL/well CELLTITER-BLUE® (n=10 replicates/group). Data were analyzed by 1-Way-ANOVA and Newman-Keuls Multiple Comparison Test. Graphs show Mean+SEM. Data are significant at p<0.05. Excitotoxicity is a major cause of neuronal death across the spectrum of CNS injury.
# [4] = tested on: Primary rat cortical neurons; assay: Hydrogen peroxide (H2O2)-oxidative stress assay, cell viability by CELLTITER-BLUE; format: cell-based; conditions: 40 μM H2O2 35 min, viability 24 h later
# Description: as §1
# pAKT473 [5] = assay: pAKT473 levels in cultured primary rat cortical neurons (Western blots); format: cell-based; conditions: 25 μM or 50 μM, 35 min
# Description: We tested if NSC74429 also increases pAKT473 levels using our published protocol. In brief, uninjured primary rat cortical neurons were maintained in Neurobasal+B27. Prior to treatments, neurons were given a supplement starvation period by exchanging maintenance media with basic Neurobasal (i.e. minus B27), and returned to a 37° C. incubator for 2 h. Neurons were subsequently treated 35 min with DMSO, 25 μM NSC74429, or 50 μM NSC74429 (diluted in basic Neurobasal). Western blots confirm that PHLPP1 and PHLPP2 isoforms are detected in rat cortical neurons. […] PHLPP inhibitors increase pAKT473 levels but NSC74429 had the opposite effect. Moreover, inhibition of pAKT473 is expected to promote cell death yet NSC74429 (AKT inhibitor) was neuroprotective as shown in FIG. 1 and FIG. 2. […] Data were analyzed by 1-Way-ANOVA and Newman-Keuls Multiple Comparison Test. Graphs show Mean+SEM. Data are significant at p<0.05. Conclusion: Together PHLPP1 and PHLPP2 regulate the dephosphorylation of pAKT473 on AKT1, AKT2, and AKT3 isoforms.
# Sprague Dawley rats = assay: Adult rat asphyxia cardiac arrest (ACA), hippocampal CA1 cell survival counts; format: in vivo; conditions: 1 mg/kg or 3 mg/kg, given 5 min after ROSC
# From the text: We tested the therapeutic efficacy of NSC74429 in a model of brain injury (ACA) in which the blood brain barrier (BBB) remains intact. Male ˜300 g Sprague Dawley rats were anesthetized on isoflurane (4% induction/2% maintenance on 50% O2/50% N2) and mechanically ventilated. The left femoral artery and vein were accessed and cannulated with heparinized-saline filled PE-50 tubing. EKG, mean arterial pressure (MAP), rectal temperature, and pectoralis temperature were continuously monitored. Body temperature was maintained to 37° C. Arterial blood gas measurements were analyzed and ventilator settings adjusted as needed to achieve normal PaO2 and PaCO2. 2 mg/kg cisatracurium was administered 5 min prior to CA to stop spontaneous breathing (i.e. neuromuscular blockage). The ventilator was disconnected. Mean arterial pressure (MAP) decreased over 2-3 min until reaching target no-flow (<10 mmHG). […] Data were analyzed by 1-Way-ANOVA and Newman-Keuls Multiple Comparison Test. […] The technician that administered drug injections, and the technician that analyzed histology, were blinded to treatment group. A single value in the vehicle-injury group (indicated by a * in the table above) was a statistical outlier as determined by the Dixon's test and was removed from statistical analysis. […]
# pAKT473 [6] = assay: pAKT473 levels in vivo, injured hippocampus after ACA; conditions: rat ACA, 1 or 3 mg/kg, iv 5 min after ROSC and ip 24 h post-injury, tissue 1 h after final injection
# Description: A separate cohort of rats was used to generate hippocampal tissue homogenates. Rats were given ACA and subsequently treated with (a) vehicle, (b) 1 mg/kg NSC74429, or (c) 3 mg/kg NSC74429. Treatments were administered by iv bolus injection 5 min after ROSC, and a 2nd ip bolus injection 24 h post-injury. Shams were administered vehicle injections and preparatory surgery but were not injured. Rats were euthanized 1 h following the final drug injection and brain tissue collected for protein analysis. […] Data were analyzed by 1-Way-ANOVA and Newman-Keuls Multiple Comparison Test. Injured rats were randomized to treatment group, and drugs provided to a technician in de-identified coded vials. The technician that administered drug injections was blinded to treatment group. Graphs show Mean+SEM. Data are significant at p<0.05.
# C57BL/6 mice = assay: Adult mouse controlled cortical impact plus hemorrhagic shock (CCI+HS), CA1/CA3 cell counts; format: in vivo
# From the text: Traumatic brain injury (TBI) compromises the BBB, making it easier for drugs to reach injured tissue, and TBI is also worsened by secondary injuries such as hypotension due to profound blood loss (HS). Adult male ˜28 g C57BL/6 mice were anesthetized with isoflurane via a nose cone (4% induction/2% maintenance on 70% N2O/30% O2), given preparatory surgery, and sequentially injured by (1) a CCI-TBI and (2) HS, as reported by our group (Jackson et al., 2015). In brief, mice were given a moderate CCI above the left parietal cortex (impact tip velocity 5 m/s and cortical depth 1.0 mm). 5 min later, HS was initiated by withdrawing blood until mean arterial pressure (MAP) decreased from ˜90 mmHG (normal) to ˜25-27 mmHG (hypotensive). HS was maintained for 35 min. Mice were then volume resuscitated using lactated ringer's (LR) solution for 90 min to mimic pre-hospital care (targeted MAP of ˜70 mmHG). Finally, shed blood was returned over 15 min to mimic definitive hospital care and MAP returned to normal. (A-D) In a first study we measured the acute neuroprotective effects of NSC74429 on hippocampal injury 48 h after CCI+HS. Mice were given an intravenous bolus injection of vehicle (5% DMSO in D5W) or NSC74429 (1 mg/kg or 3 mg/kg) immediately after the hospital phase (i.e. […] after the initial CCI-injury). A second intraperitoneal injection was administered 24 h later, and brains collected for CA1/CA3 cell counts 48 h post-injury. One animal died in the vehicle-injury group and four animals died in the 3 mg/kg NSC74429 group prior to tissue collection. (A and B) Scatter plots show CA1/CA3 cell counts in surviving animals. 1 mg/kg NSC74429 was neuroprotective. Hippocampal survival bifurcated in the 3 mg/kg high-dose group; some animals had improved CA1/CA3 survival vs. vehicle-injury whereas others were clearly made worse. Given that mortality was also higher with 3 mg/kg NSC74429 (4 vs. 1), we eliminated the high-dose group from further statistical analysis. (C and D) Statistical analysis of CA1/CA3 cell counts. […] (E and F) A second study was done to test if NSC74429 neuroprotection is sustained chronically by 7 d post-injury. Only the low dose (1 mg/kg) was tested. Mice were injured as described above, given intravenous injection of vehicle or 1 mg/kg drug immediately following the hospital phase of HS, supplemental injections administered intraperitoneally at 24 h, 48 h, and 72 h post-injury, and brains collected for histology 7 d post-injury. […] Data were analyzed by 1-Way-ANOVA and Newman-Keuls Multiple Comparison Test. Graphs show Mean+SEM. Data are significant at p<0.05. Injured rats were randomized to treatment group, and drugs provided to a technician in de-identified coded vials. The technician that administered drug injections, and the technician that analyzed histology, were blinded to treatment group. Conclusion: NSC74429 is neuroprotective in the acute and chronic phase after injury in a severe trauma model.
# PHLPP2 = conditions: reported by Sierecki and colleagues; read-out: IC50 to block PHLPP2; cited from earlier work
# [7] = 1 mg/kg iv then ip at 24 h, 48 h post-injury
smiles,measurement,setting,value
COc1cc(NCCC2CCCCN2)c2ncccc2c1 (stereo not shown) [NSC13378],"neuroprotection, cell viability after STS injury",[1]; viability 24 h later (DIV10),failed to protect
CN(C)CCOC(=O)c1ccc(N)cc1 [NSC25247],"neuroprotection, cell viability after STS injury","[1]; 50 μM, viability 24 h later",mildly neuroprotective
Cc1cc(N=Nc2ccc(N=Nc3ccc(O)c(C(=O)[O-])c3)cc2)c(N)cc1N.[Na+] [NSC45586],pAKT473 levels,pAKT473 [2],dose-dependently increase pAKT473 levels
S=C(Nc1ccc2cn[nH]c2c1)Nc1ccc2cn[nH]c2c1 [NSC74429],"neuroprotection, cell viability after STS injury","[1]; 25-50 μM, viability 24 h later",potently neuroprotective
same,glutamate-induced neuronal death,[3]; 25 μM,insufficient to decrease glutamate-induced neuronal death
same,glutamate-induced neuronal death (excitotoxic injury),[3]; 50 μM,reduced excitotoxic injury
same,cell death induced by oxidative stress,[4],decreases cell death
same,pmTOR2448 (other phosphorylated proteins),pAKT473 [5]; uninjured neurons,did not affect
same,pAKT473 levels,pAKT473 [5]; uninjured neurons after 2 h supplement starvation,dose-dependently decreased pAKT473 levels
same,hippocampal CA1 cell survival (neuroprotection),Sprague Dawley rats,neuroprotective
same,pAKT473 levels in the injured hippocampus,pAKT473 [6],did not increase pAKT473 levels
same,CA1 survival,"C57BL/6 mice; 1 mg/kg iv then ip at 24, 48, 72 h, 7 d post-injury",equivalent in both injured groups
same,"CA3 tissue sparing, above vehicle injury","C57BL/6 mice; 1 mg/kg iv then ip at 24, 48, 72 h, 7 d post-injury, not statistically significant",~17.5%
same,CA1 cell survival,C57BL/6 mice; [7],significantly increased
same,CA3 cell survival,C57BL/6 mice; [7],significantly increased
same,hippocampal CA1/CA3 survival,"C57BL/6 mice; 3 mg/kg high-dose group, 48 h post-injury",bifurcated
same,mortality (animals died prior to tissue collection),"C57BL/6 mice; 3 mg/kg, vs. 1 in vehicle-injury group",4 animals
same,IC50,PHLPP2,5 µM
Nc1c(S(=O)(=O)O)cc(Nc2cccc(S(N)(=O)=O)c2)c2c1C(=O)c1ccccc1C2=O [NSC117079],pAKT473 levels,pAKT473 [2],dose-dependently increase pAKT473 levels
